Measurements published in patent US20100015058A1, “RADIOLABELED BBN-RGD HETERODIMERS FOR CANCER TARGETING” (STANFORD UNIVERSITY, priority 2008, published 2010).

What was measured:
[1] = in vivo; design: species or system mice; conditions: male, athymic nude, mouse, 0.74 MBq, total radioactivity
Experimental: At 0.5 h and 1 h after injection of the tracer, the tumor-bearing mice were killed and dissected. Blood, tumor, major organs, and tissues were collected and wet-weighed. The radioactivity in the tissue was measured by y counter (Packard). The results are presented as percentage injected dose per gram of tissue (% ID/g). For each mouse, the radioactivity of the tissue samples was calibrated against a known aliquot of the injectate and normalized to a body mass of 20 g. Values were expressed as mean±SD for groups of four animals (n=4 per group).

[2] = tested on: PC-3 tumor cells; assay: Cell uptake assay on PC-3 tumor cells; format: cell-based, human; conditions: PC-3 cells
Experimental: In the cell uptake experiment, PC-3 cells were seeded into 12-well plates at a density of 5×10^5 cells per well for overnight incubation. Cells were rinsed 3 times with phosphate-buffered saline (PBS), followed by the addition of ^18F-FB-RGD, ^18F-FB-BBN, or ^18F-BBN-RGD to the cultured wells in triplicate (about 2 μCi/well). […] The cell lysate was collected in measurement tubes for counting. The cell uptake was normalized in terms of added radioactivity.
(§1) The cell uptake studies were performed as we have previously described with some modifications (Chen et al., Mol Imaging Biol. (2004) […]; Cai et al., (2006) J. Nuc. Med. 47: 1172-1180, incorporated herein by reference in their entireties). Briefly, PC-3 cells were seeded into 12-well plates at a density of 5×10^5 cells per well and incubated (about 18 kBq/well) with ^68Ga-labeled tracers at 37° C. for 15, 30, 60, and 120 min. Tumor cells were then washed three times with chilled PBS and harvested by trypsinization with 0.25% trypsin/0.02% EDTA (Invitrogen). The cell suspensions were collected and measured in a y counter (Packard, Meriden, Conn.). The cell uptake was expressed as the percent added dose (% AD) after decay correction. Experiments were performed twice with triplicate wells. For efflux studies, ^68Ga-labeled tracers (about 18 kBq/well) were first incubated with PC-3 cells in 12-well plates for 1 h at 37° C. to allow internalization. Then cells were washed twice with PBS, and incubated with cell culture medium for 15, 30, and 60 min. After washing three times with PBS, cells were harvested by trypsinization with 0.25% trypsin/0.02% EDTA. The cell suspensions were collected and measured in a γ counter. Experiments were performed twice with triplicate wells. Data are expressed as percent added dose after decay correction.

[3] = tested on: PC-3 tumor cells; format: cell-based, human
Experimental: In the cell efflux experiment, PC-3 cells were seeded into 12-well plates at a density of 5×10^5 cells per well for overnight incubation. Cells were rinsed 3 times with PBS and then the appropriate ^18F-labeled peptide tracer was added. The cells were incubated at 37° C. for 2 hr, washed with PBS, and then reincubated with serum-free medium. The cells were washed at different time points (0, 15, 30, 60, 120, 180 min) with PBS and lysed with NaOH-SDS (0.2 M NaOH, 1% SDS). The cell lysate was collected in measurement tubes for counting. Efflux values at different time points were calculated by subtracting retention from 0-min retention, and normalized by dividing the total counts at 0 min.
as §1

[4] = tested on: PC-3 tumor; assay: Small-animal PET of PC-3 tumor-bearing mice
[5] = tested on: T47D tumor; assay: MicroPET of T47D tumor-bearing mice; format: in vivo; conditions: orthotopic model
Description: The MDA-MB-231, MDA-MB468, BT474, BT-20, T47D, MCF-7 and MDA-MB435 human breast cancer cell lines were all obtained from the American Type Culture Collection (ATCC) and maintained under standard conditions according to ATCC. The MDA-MB435 tumor model was established by orthotopic injections of 5×10^6 cells into the right mammary fat pad of female athymic nude mice. For T47D tumor model establishment, the female nude mice were first subcutaneously implanted with 60-day release 17β-estradiol pellets (Innovative Research of America, Sarasota, Fla.) in the left neck. One day after the estradiol implantation, 1×10^7 T47D cells were orthotopically injected into the right mammary fat pad of the nude mice. The mice were subjected to microPET studies when the tumor volume reached 100-300 mm^3 (2-3 weeks for MDA-MB-435, and 4-5 wk for T47D).
Quantification of tumor and major organ activity accumulation in the microPET scans was realized by measuring the regions of interest (ROIs) that encompassing the entire organ on the coronal images.

[6] = in vivo; design: species or system mice; conditions: BALB/c, mouse, iv, 370 kBq, total radioactivity, pancreatic uptake
Experimental: All mice were sacrificed at 1 h after injection of the tracer. Blood, tumor, and major organs and tissues were collected and wet-weighed. Stomach and intestines were cleaned of their contents in this experiment. The radioactivity in the tissue was measured using a g-counter (Packard). The results were presented as percentage injected dose per gram of tissue (% ID/g). Values were expressed as mean 6 SD (n=4/group).

CSCC[C@H](NC(=O)[C@H](CC(C)C)NC(=O)[C@H](Cc1c[nH]cn1)NC(=O)CNC(=O)[C@@H](NC(=O)[C@H](C)NC(=O)[C@H](Cc1c[nH]c2ccccc12)NC(=O)[C@H](CCC(N)=O)NC(=O)CCCCCNC(=O)CC[C@H](NC(=O)COCCOCCOCCNC(=O)c1ccc([18F])cc1)C(=O)NCCCC[C@@H]1NC(=O)[C@@H](Cc2ccc(O)cc2)NC(=O)[C@H](CC(=O)O)NC(=O)CNC(=O)[C@H](CCCNC(=N)N)NC1=O)C(C)C)C(N)=O [^18F-FB-PEG3-RGD-BBN]
tissue uptake at 1 h ([1]; kidney uptake, biodistribution): 4.87 ± 0.67 %ID/g | tissue uptake at 1 h ([1]; tumor uptake, biodistribution): 4 ± 0.08 %ID/g | tissue uptake at 1 h ([1]; uptake values in the blood, heart, liver, spleen, bone, and muscle): < 2 %ID/g | inhibition of cell uptake by BBN ([2]; 4° C., 60 min, blocking with Aca-BBN(7-14)): 83.67±2.09% | inhibition of cell uptake by RGD+BBN ([2]; 4° C., 60 min, blocking with both peptides): 91.97±0.14% | inhibition of cell uptake by RGD ([2]; 4° C., 60 min, blocking with c(RGDyK)): 17.55±8.89% | cell uptake ([2]; 37° C., 15 min): 4.72±0.37% | cell uptake ([2]; 37° C., 30 min): 5.51±0.11% | cell uptake ([2]; 37° C., 60 min): 5.87±0.15% | cell uptake ([2]; 37° C., 120 min): 6.65±0.34% | internalization (uptake at 37° C. minus uptake at 4° C.) ([2]; within 30 min of incubation, plateaus afterwards): about 3.5% | efflux ratio [3]: about 40% | decrease of tumor uptake by BBN blocking ([4]; 1 h, Aca-BBN(7-14) 15 mg/kg, n=3): 65% | decrease of tumor uptake by RGD and BBN blocking ([4]; 1 h, RGD 10 mg/kg and BBN 15 mg/kg, n=3): 90% | decrease of tumor uptake by RGD blocking ([4]; 1 h, c(RGDyK) 10 mg/kg, n=3): 50% | blood % ID/g at 30 min relative to that at 2 min p.i. ([4]; mouse, in vivo): 35% | time of peak kidney uptake ([4]; mouse, in vivo): about 10 min | T47D tumor uptake ([5]; 0.5 h): 2.96±0.53 % ID/g | T47D tumor uptake ([5]; 1 h): 1.81±0.34 % ID/g | T47D tumor uptake ([5]; 2 h): 0.91±0.12 % ID/g

CSCC[C@H](NC(=O)[C@H](CC(C)C)NC(=O)[C@H](Cc1c[nH]cn1)NC(=O)CNC(=O)[C@@H](NC(=O)[C@H](C)NC(=O)[C@H](Cc1c[nH]c2ccccc12)NC(=O)[C@H](CCC(N)=O)NC(=O)CCCCCNC(=O)CC[C@H](NC(=S)Nc1ccc(C[C@H]2CN(CC(=O)O)CCN(CC(=O)O)CCN2CC(=O)O)cc1)C(=O)NCCCC[C@@H]1NC(=O)[C@@H](Cc2ccc(O)cc2)NC(=O)[C@H](CC(=O)O)NC(=O)CNC(=O)[C@H](CCCNC(=N)N)NC1=O)C(C)C)C(N)=O [^64Cu-NOTA-RGD-BBN, metal not drawn]
tissue uptake at 1 h [6]: 7.03 ± 1.96 %ID/g | cell uptake value ([2]; 120 min): 2.94 % added dose | T47D tumor uptake ([5]; 0.5 h): 3.73 ± 0.81 % ID/g | T47D tumor uptake ([5]; 1 h): 2.33 ± 0.59 % ID/g | T47D tumor uptake ([5]; 2 h): 1.97 ± 0.32 % ID/g

CSCC[C@H](NC(=O)[C@H](CC(C)C)NC(=O)[C@H](Cc1c[nH]cn1)NC(=O)CNC(=O)[C@@H](NC(=O)[C@H](C)NC(=O)[C@H](Cc1c[nH]c2ccccc12)NC(=O)[C@H](CCC(N)=O)NC(=O)CCCCCNC(=O)CC[C@H](NC(=S)Nc1ccc(C[C@H]2CN(CC(=O)O)CCN(CC(=O)O)CCN2CC(=O)O)cc1)C(=O)NCCCC[C@@H]1NC(=O)[C@@H](Cc2ccc(O)cc2)NC(=O)[C@H](CC(=O)O)NC(=O)CNC(=O)[C@H](CCCNC(=N)N)NC1=O)C(C)C)C(N)=O [^68Ga-NOTA-RGD-BBN, metal not drawn]
tissue uptake at 0.5 h ([1]; kidney uptake, biodistribution): 8.76 ± 1.83 %ID/g | tissue uptake at 1 h ([1]; kidney uptake, biodistribution): 5.58 ± 0.75 %ID/g | tissue uptake at 0.5 h ([1]; tumor uptake, biodistribution): 5.43 ± 0.54 %ID/g | tissue uptake at 1 h ([1]; tumor uptake, biodistribution): 4.76 ± 0.46 %ID/g | cell uptake (plateau) ([2]; 37° C., 15 min incubation): 1.69±0.29 % AD | cell-associated tracer (cell retention) ([3]; PC-3 cells, 60 min efflux, FIG. 14D): 1.14±0.50 % AD | time of peak kidney uptake ([4]; mouse, in vivo): about 10 min
